Measurements from the supplement of paper PMC10307832.

Assays:
Experiment in all cases: relative viability (nuclei count vs DMSO), 5 days (fraction); higher = more cells survive
VX-11e + Navitoclax = compound: CC1=CN=C(N=C1C2=CNC(=C2)C(=O)N[C@H](CO)C3=CC(=CC=C3)Cl)NC4=C(C=C(C=C4)F)Cl [VX-11e] + CC1(C)CCC(c2ccc(Cl)cc2)=C(CN2CCN(c3ccc(C(=O)NS(=O)(=O)c4ccc(N[C@H](CCN5CCOCC5)CSc5ccccc5)c(S(=O)(=O)C(F)(F)F)c4)cc3)CC2)C1 [Navitoclax] (partner 0.5 µM)
Outline: (§1)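 Lung cancer cell lines in 1536-well plates were dosed by pin tool the day after seeding, either with one drug alone or with a fixed anchor-drug dose plus five library-drug doses (not always all listed) in √10 steps. After 5 days, cells were fixed and their nuclei stained in one step (final 0.05% Triton X-100, 1% formaldehyde, 1 ug/ml Hoechst), then counted on 4× images. Relative viability is the nuclei count in treated wells divided by that in vehicle wells. Values are medians of duplicate plates.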

VX-11e + Linsitinib = compound: CC1=CN=C(N=C1C2=CNC(=C2)C(=O)N[C@H](CO)C3=CC(=CC=C3)Cl)NC4=C(C=C(C=C4)F)Cl [VX-11e] + C[C@]1(O)C[C@@H](c2nc(-c3ccc4ccc(-c5ccccc5)nc4c3)c3c(N)nccn32)C1 [Linsitinib] (partner 1 µM)
Outline: as §1

VX-11e + Alpelisib = compound: CC1=CN=C(N=C1C2=CNC(=C2)C(=O)N[C@H](CO)C3=CC(=CC=C3)Cl)NC4=C(C=C(C=C4)F)Cl [VX-11e] + Cc1nc(NC(=O)N2CCC[C@H]2C(N)=O)sc1-c1ccnc(C(C)(C)C(F)(F)F)c1 [Alpelisib] (partner 2 µM)
Outline: as §1

VX-11e + Vorinostat = compound: CC1=CN=C(N=C1C2=CNC(=C2)C(=O)N[C@H](CO)C3=CC(=CC=C3)Cl)NC4=C(C=C(C=C4)F)Cl [VX-11e] + O=C(CCCCCCC(=O)Nc1ccccc1)NO [Vorinostat] (partner 1 µM)
Outline: as §1

Row | Cell Line | relative viability (VX-11e + Navitoclax; first compound 0.04 µM) | relative viability (VX-11e + Navitoclax; first compound 0.1265 µM) | relative viability (VX-11e + Navitoclax; first compound 0.4 µM) | relative viability (VX-11e + Navitoclax; first compound 1.265 µM) | relative viability (VX-11e + Navitoclax; first compound 4 µM) | relative viability (VX-11e + Linsitinib; first compound 0.04 µM) | relative viability (VX-11e + Linsitinib; first compound 0.1265 µM) | relative viability (VX-11e + Linsitinib; first compound 0.4 µM) | relative viability (VX-11e + Linsitinib; first compound 1.265 µM) | relative viability (VX-11e + Linsitinib; first compound 4 µM) | relative viability (VX-11e + Alpelisib; first compound 0.04 µM) | relative viability (VX-11e + Alpelisib; first compound 0.1265 µM) | relative viability (VX-11e + Alpelisib; first compound 0.4 µM) | relative viability (VX-11e + Alpelisib; first compound 1.265 µM) | relative viability (VX-11e + Alpelisib; first compound 4 µM) | relative viability (VX-11e + Vorinostat; first compound 0.04 µM) | relative viability (VX-11e + Vorinostat; first compound 0.1265 µM) | relative viability (VX-11e + Vorinostat; first compound 0.4 µM) | relative viability (VX-11e + Vorinostat; first compound 1.265 µM) | relative viability (VX-11e + Vorinostat; first compound 4 µM)
1 | HCC-44 | 0.92 | 0.883 | 1.22 | 1 | 0.732 | 0.697 | 0.619 | 0.686 | 0.657 | 0.523 | 0.796 | 0.766 | 0.716 | 0.614 | 0.355 | 1.15 | 1.15 | 1.12 | 1.03 | 0.831
2 | IA-LM | 0.899 | 0.891 | 0.844 | 0.415 | 0.0436 | 0.694 | 0.516 | 0.469 | 0.132 | 0.142 | 0.855 | 0.734 | 0.756 | 0.387 | 0.143 | 1.07 | 0.814 | 0.941 | 0.668 | 0.302
3 | NCI-H1734 | 0.787 | 0.796 | 0.685 | 0.652 | 0.245 | 0.797 | 0.789 | 0.814 | 0.837 | 0.536 | 0.689 | 0.691 | 0.648 | 0.674 | 0.41 | 0.71 | 0.779 | 0.593 | 0.449 | 0.341
4 | LXF-289 | 0.99 | 0.914 | 0.965 | 0.895 | 0.607 | 0.995 | 0.88 | 0.958 | 0.801 | 0.686 | 1.05 | 0.962 | 0.961 | 0.942 | 0.695 | 0.851 | 0.726 | – | 0.668 | 0.543
5 | NCI-H838 | 1.17 | 1.1 | 1.05 | 1.1 | 0.861 | 1.06 | 0.933 | 0.96 | 0.887 | 0.79 | 1.06 | 0.989 | 0.952 | 1.02 | 0.824 | 0.774 | 0.669 | 0.681 | 0.639 | 0.591
6 | A-427 | 0.999 | 0.88 | 0.796 | 0.585 | 0.268 | 1.14 | 1.08 | 1.01 | 0.888 | 0.466 | 0.962 | 1.06 | 0.878 | 0.667 | 0.239 | 0.868 | 0.928 | 1.01 | 0.89 | 0.504
7 | COR-L23 | 1.25 | 1.13 | 0.924 | 0.681 | 0.305 | 1.04 | 0.905 | 0.816 | 0.508 | 0.248 | 0.913 | 0.742 | 0.669 | 0.379 | 0.17 | 0.31 | 0.436 | 0.592 | 0.41 | 0.262
8 | NCI-H596 | 1.12 | 0.876 | 0.895 | 0.951 | 0.586 | 1.06 | 0.944 | 0.981 | 0.874 | 0.769 | 0.504 | 0.458 | 0.459 | 0.48 | 0.357 | 0.472 | 0.635 | 0.597 | 0.387 | 0.354
9 | NCI-H2347 | 0.932 | 0.818 | 0.683 | 0.352 | 0.213 | 1.07 | 0.927 | 0.798 | 0.7 | 0.496 | 1.15 | 0.991 | 1 | 0.618 | 0.379 | 0.514 | 0.688 | 0.5 | 0.349 | 0.316
10 | EKVX | 0.847 | 0.935 | 0.926 | 0.831 | 0.601 | 1.01 | 0.971 | 1.05 | 0.87 | 0.559 | 0.953 | 0.869 | 0.984 | 0.752 | 0.335 | 0.751 | 0.687 | 0.718 | 0.728 | 0.382
11 | HCC-78 | 0.878 | 0.69 | 0.769 | 0.455 | 0.762 | 0.584 | 0.5 | 0.541 | 0.403 | 0.382 | 0.313 | 0.348 | 0.381 | 0.276 | 0.312 | 0.479 | 0.42 | 0.358 | 0.482 | 0.405
12 | NCI-H647 | 1.08 | 1.09 | 0.904 | 0.663 | 0.522 | 1.1 | 1.05 | 1.09 | 0.674 | 0.378 | 1.32 | 1.19 | 1.05 | 0.551 | 0.282 | 0.501 | 0.655 | 0.637 | 0.496 | 0.339
13 | NCI-H2126 | – | 0.861 | 0.877 | 0.785 | 0.638 | – | 0.735 | 0.689 | 0.677 | 0.556 | – | 0.755 | 0.747 | 0.68 | 0.578 | 0.512 | 0.686 | 0.352 | 0.474 | 0.52
14 | NCI-H520 | 0.963 | 1.04 | 1 | 1.38 | 0.992 | 0.948 | 0.898 | 0.827 | 1.06 | 0.69 | 0.919 | 0.939 | 0.863 | 0.982 | 0.619 | 0.646 | 0.875 | 0.682 | 0.698 | 0.518
15 | EMC-BAC-2 | 1.22 | 1.11 | 0.994 | 0.927 | 0.833 | 0.831 | 0.74 | 0.743 | 0.712 | 0.602 | 0.731 | 0.662 | 0.687 | 0.618 | 0.534 | 0.404 | 0.45 | 1.07 | 0.511 | 0.315
16 | NCI-H1755 | 1.06 | 0.956 | 0.972 | 0.956 | 0.558 | 1.03 | 0.976 | 0.95 | 0.94 | 0.553 | 0.962 | 0.885 | 0.882 | 0.931 | 0.497 | 0.795 | 0.686 | 0.782 | 0.764 | 0.598
17 | H3255 | 0.526 | 0.451 | 0.657 | 0.614 | 0.496 | 1.01 | 0.815 | 0.971 | 0.956 | 0.879 | 0.662 | 0.617 | 0.436 | 0.688 | 0.562 | 0.828 | 0.765 | 0.776 | 0.79 | 0.708
18 | CAL-12T | 1.14 | 1.3 | 1.09 | 1.2 | 0.422 | 0.873 | 0.816 | 0.765 | 0.465 | 0.282 | 1.4 | 1.03 | 1.07 | 0.898 | 0.295 | 0.634 | 0.724 | 0.649 | 0.84 | 0.285
19 | NCI-H1915 | 0.826 | 0.761 | 0.787 | 0.682 | 0.546 | 1.21 | 1.12 | 1.19 | 1.04 | 0.857 | 1.08 | 0.973 | 1.08 | 0.978 | 0.652 | 0.469 | 0.493 | 0.526 | 0.607 | 0.43
20 | NCI-H2023 | 1.02 | 0.879 | 0.966 | 1 | 0.405 | 0.727 | 0.692 | 0.596 | 0.362 | 0.283 | 0.59 | 0.611 | 0.572 | 0.458 | 0.257 | 0.709 | 0.604 | 0.289 | 0.318 | 0.209
21 | NCI-H727 | 0.395 | 0.332 | 0.283 | 0.167 | 0.115 | 0.314 | 0.252 | 0.215 | 0.274 | 0.184 | 0.432 | 0.497 | 0.438 | 0.333 | 0.254 | 0.997 | 1.08 | 1.28 | 1.12 | 0.787
22 | NCI-H1944 | 0.947 | 1.03 | 0.951 | 0.944 | 0.504 | 1.08 | 1.09 | 0.998 | 0.862 | 0.552 | 0.843 | 0.809 | 0.785 | 0.557 | 0.399 | 0.492 | 0.506 | 0.441 | 0.478 | 0.408
23 | NCI-H1355 | 0.92 | 0.891 | 0.945 | 0.695 | 0.333 | 0.861 | 0.798 | 0.786 | 0.574 | 0.374 | 0.725 | 0.687 | 0.88 | 0.572 | 0.302 | 0.472 | 0.617 | 0.591 | 0.52 | 0.345
24 | HOP-62 | 0.992 | 0.891 | 1.02 | 0.46 | 0.582 | 0.903 | 0.773 | 0.973 | 0.831 | 0.226 | 1.05 | 0.921 | 0.892 | 0.866 | 0.502 | 0.519 | 0.59 | 0.345 | 0.201 | 0.158
25 | NCI-H2405 | 1.03 | 0.921 | – | 0.592 | 0.126 | 0.933 | 0.787 | – | 0.817 | 0.272 | 0.857 | 0.726 | – | 0.602 | 0.209 | 0.993 | 0.866 | 1.22 | 0.918 | 0.565
26 | SK-MES-1 | 1.21 | 1.15 | 1.24 | 1.1 | 0.408 | 1.08 | 1.03 | 1.07 | 1.05 | 0.691 | 1.31 | 0.815 | 0.718 | 0.644 | 0.208 | 1.12 | 1.04 | 0.902 | 0.422 | 0.393
27 | EPLC-272H | 1.09 | 1.02 | 1.01 | 0.82 | 0.668 | 0.923 | 1.04 | 0.927 | 0.934 | 0.562 | 0.742 | 0.702 | 0.823 | 0.835 | 0.512 | 0.311 | 0.381 | 0.477 | 0.23 | 0.275
